Results taken from patent US8048873B2, “Synergistic pharmaceutical combination for the prevention or treatment of diabetes” (N-Gene Research Laboratories, Inc., priority 2001, dated 2011).

Test system: New Zealand white rabbits
Test: Hyperinsulinaemic euglycaemic glucose clamp studies (insulin sensitivity by glucose infusion rate at steady state)
Assay type: in vivo, rabbit
Conditions: measured on 6th day
Experimental: Adult male New Zealand white rabbits weighing 3-3.2 kg, housed in an animal room (12-hour light/dark periods a day, temperature of 22-25° C., relative humidity of 50-70%) with one animal per pen, fed commercial laboratory chow and tap water ad libitum, were used throughout. The animals underwent surgery after a two-week adaptation period.
Surgery was performed under aseptic conditions. The rabbits were anaesthetized with an intravenous bolus of 10 mg/kg diazepam (Sigma, St. Louis, Mo., USA) and 5 mg/kg ketamine (EGIS Pharmaceuticals Ltd., Budapest, Hungary). […] Polyethylene catheters were inserted into two major branches of the jugular vein and the left carotid artery. The catheters were exteriorised through the back of the neck. These lines were kept patent by filling with sodium heparin solution (100 IU/ml).
Hyperinsulinaemic Euglycaemic Glucose Clamp Studies
Blood samples (0.3 ml) were taken from the arterial cannula for blood glucose concentration at 10 min intervals. […] When blood glucose had stabilized for at least 30 min, we defined this condition as steady state. In the steady state, additional blood samples (0.5 ml) were taken for plasma insulin determination at 10-min intervals. The glucose infusion rate (mg/kg/min) during steady state was used to characterize insulin sensitivity [DeFronzo R. A. et al., Am. […] The test compound(s) was/were administered to healthy and hypercholesterolaemic animals, respectively, perorally, in a single dose, daily, for five days, and the glucose infusion rates determined on the 6th day were averaged within each test group consisting of 6 animals. One group of the healthy and one of the hypercholesterolaemic animals was used as the control.
It is favourable that a higher amount of glucose should be needed at the given constant blood glucose level which indicates the enhanced effect of insulin.

SMILES	Insulin sensitivity as characterized by the glucose infusion rate during steady state (Table 2, HC (hypercholesterolaemic) animals, troglitazone 75 mg/kg daily dose p.o. for five days)	Insulin sensitivity as characterized by the glucose infusion rate during steady state (Table 2, normal (healthy) animals, troglitazone 75 mg/kg daily dose p.o. for five days)	Insulin sensitivity as characterized by the glucose infusion rate during steady state (Table 1, HC (hypercholesterolaemic) animals, metformin 100 mg/kg daily dose p.o. for five days)	Insulin sensitivity as characterized by the glucose infusion rate during steady state (Table 1, normal (healthy) animals, metformin 100 mg/kg daily dose p.o. for five days)
Cc1c(C)c2c(c(C)c1O)CCC(C)(COc1ccc(CC3SC(=O)NC3=O)cc1)O2 (racemic) [Troglitazone, (±)-5-[[4-[(3,4-dihydro-6-hydroxy-2,5,7,8-tetramethyl-2H-1-benzopyran-2-yl)methoxy]-phenyl]methyl]-2,4-thiazolidinedione]	14.1 ± 1.33 mg/kg/min	14.3 ± 0.08 mg/kg/min	–	–
CN(C)C(=N)N=C(N)N [Metformin, N,N-dimethylimidocarbonimidic diamide]	–	–	11.7 ± 0.87 mg/kg/min	15.8 ± 0.83 mg/kg/min
